Values after ≈ are worked out from the molar mass of the structure shown. Where two headings read alike, the source gives them in different places.
Legend:
A549 = experiment: In vitro tumor cell cytotoxicity, three day MTT microtiter assay (A549); type: cell-based, human; conditions: for IC50: Homo sapiens, read-out: In vitro tumor cell cytotoxicity (IC50)
Experimental: (§1) A three day microtiter assay was used to measure the growth inhibition of cultured cells exposed to a range of drug concentrations. Metabolic activity was measured by the cells' ability to reduce the tetrazolium dye, MTT (3-(4,5-dimethylthiazol-2-yl-2,5-diphenyltetrazolium bromide) to a quantifiable colored end product, which absorbs at 570 nm in the visible spectrum. Surviving cells reduce the MTT dye.
(§2) Test compounds were dissolved in dimethyl sulfoxide (DMSO) and diluted, first with Earle's Balanced Salt Solution, followed by culture medium, to twice the highest concentration of compound to be tested. From this concentrated stock, two-fold serial dilutions were prepared in 96-well microtiter trays, each well containing twice the desired final concentration of compound. Each concentration was tested in triplicate and compared to triplicate drug-free controls.
(§3) The cells were grown in the same medium used for diluting the compounds and then harvested using trypsinization. This involved removing the medium by aspiration; rinsing the cell monolayer twice with Earle's Balanced Salt Solution; adding trypsin (0.05%)/EDTA (0.53 mM; for each 25 cm^2, approximately 0.2 mL), tilting to cover the monolayer, and then withdrawing trypsin leaving only a thin film of solution; incubating at room temperature until the cell monolayers detached (as determined by visual and/or microscopic observation); adding medium contaiing fetal calf serum to stop the action of the trypsin and resuspend the cells; triturating to aid dissociation of cell clumps; and determining the number of cells per milliliter by electronic cell counter (e.g. Coulter Counter) or by mixing an aliquot of cell suspension with Trypan Blue (0.4% in normal saline) and counting the viable cells using a hemacytometer.
(§4) After harvesting and determination of viable cell counts, cell density was adjusted to 25,000 cells/mL. Inoculum (0.1 mL) containing the cells was then added to each well for a final concentration of 2,500 cells per well. Addition of the inoculum diluted the test compounds to the desired final concentration.
(§5) Microtiter trays were then incubated for three days at 36° C. in a humidified atmosphere containing 5% carbon dioxide. After three days, 20 microtiters of 5 mg/mL MTT in phosphate-buffered saline solution were added to each well. Trays were returned to the incubator for two to four hours to allow the surviving cells to reduce the dye. Medium and unreduced dye were removed by aspiration. DMSO was added to each well to dissolve the water-insoluble, colored end product of the dye reduction so that it could be measured spectrophotometrically at 570 nm.

P-388 = experiment: In vitro tumor cell cytotoxicity, three day MTT microtiter assay (P-388); type: cell-based, mouse; conditions: for IC50: P388, 72 h, read-out: In vitro tumor cell cytotoxicity (IC50)
Experimental: as §1, §2, §3, §4, §5

[1] = 72 h, A549, 3 days, MTT, absorbance at 570 nm
[2] = P-388 (mouse leukemia), 3 days, MTT, absorbance at 570 nm

SMILES	IC50 (A549; A549, 72 h) [µg/mL]	IC50 (P-388; Mus musculus) [µg/mL]	IC50 (A549; [1]) [µg/mL]	IC50 (P-388; [2]) [µg/mL]	also measured
CC(=O)O[C@@H]1C2=C(C)[C@@H](OC(=O)[C@H](O)[C@@H](NC(=O)c3ccccc3)c3ccccc3)C[C@@](O)([C@@H](OC(=O)c3ccccc3)[C@@H]3[C@]4(OC(C)=O)CO[C@@H]4C[C@@H]4OC(C)(C)O[C@@H]1[C@]43C)C2(C)C [Example 10, 9-Dihydrotaxol-7,9-isopropylidene ketal]	0.025 (≈ 0.0279 µM)	0.042 (≈ 0.0469 µM)	–	–	–
CC(=O)O[C@@H]1C2=C(C)[C@@H](OC(=O)[C@H](O)[C@@H](NC(=O)OC(C)C)c3ccccc3)C[C@@](O)([C@@H](OC(=O)c3ccccc3)[C@@H]3[C@]4(OC(C)=O)CO[C@@H]4C[C@H](O)[C@@]3(C)[C@H]1O)C2(C)C [Example 25, N-Debenzoyl-N-isopropoxycarbonyl-9-dihydrotaxol]	–	–	0.0012 (≈ 0.00143 µM)	0.0092 (≈ 0.011 µM)	–
CC(=O)O[C@@H]1C2=C(C)[C@@H](OC(=O)[C@H](O)[C@@H](NC(=O)c3ccccc3)c3ccccc3)C[C@@](O)([C@@H](OC(=O)c3ccccc3)[C@@H]3[C@]4(OC(C)=O)CO[C@@H]4C[C@@H]4OC(CC(O)CO)O[C@@H]1[C@]43C)C2(C)C (stereo partly shown) [Example 13, 9-Dihydrotaxol-7,9-(3,4-dihydroxy)butylidene acetal]	0.3 (≈ 0.318 µM)	0.18 (≈ 0.191 µM)	–	–	–
CCN(CC)CCO[C@H]1C[C@H]2OC[C@@]2(OC(C)=O)[C@H]2[C@H](OC(=O)c3ccccc3)[C@]3(O)C[C@H](OC(=O)[C@H](O)[C@@H](NC(=O)c4ccccc4)c4ccccc4)C(C)=C([C@@H](OC(C)=O)[C@H](O)[C@]12C)C3(C)C [Example 17]	0.4 (≈ 0.419 µM)	0.31 (≈ 0.325 µM)	–	–	–
CC(=O)O[C@@H]1C2=C(C)[C@@H](OC(=O)[C@H](O)[C@@H](NC(=O)OCC(C)C)c3ccccc3)C[C@@](O)([C@@H](OC(=O)c3ccccc3)[C@@H]3[C@]4(OC(C)=O)CO[C@@H]4C[C@H](O)[C@@]3(C)[C@H]1O)C2(C)C [Example 23, N-Debenzoyl-N-isobutoxycarbonyl-9-dihydrotaxol]	0.0043 (≈ 0.00505 µM)	0.028 (≈ 0.0329 µM)	–	–	–
CC(=O)O[C@@H]1C2=C(C)[C@@H](OC(=O)[C@H](O)[C@@H](NC(=O)c3ccccc3)c3ccccc3)C[C@@](O)([C@@H](OC(=O)c3ccccc3)[C@@H]3[C@]4(OC(C)=O)CO[C@@H]4C[C@@H]4OC(c5ccccc5)O[C@@H]1[C@]43C)C2(C)C (stereo partly shown) [Example 12, 9-Dihydrotaxol-7,9-benzylidene acetal]	–	–	1 (≈ 1.06 µM)	1 (≈ 1.06 µM)	–
CC(=O)O[C@@H]1C2=C(C)[C@@H](OC(=O)[C@H](O)[C@@H](NC(=O)c3ccccc3)c3ccccc3)C[C@@](O)([C@@H](OC(=O)c3ccccc3)[C@@H]3[C@]4(OC(C)=O)CO[C@@H]4C[C@@H]4OC(=S)O[C@@H]1[C@]43C)C2(C)C [Example 14, 9-Dihydrotaxol-7,9-thionocarbonate]	0.019 (≈ 0.0212 µM)	0.035 (≈ 0.039 µM)	–	–	–
CC(=O)O[C@@H]1C2=C(C)[C@@H](OC(=O)[C@H](O)[C@@H](NC(=O)c3ccccc3)c3ccccc3)C[C@@](O)([C@@H](OC(=O)c3ccccc3)[C@@H]3[C@]4(OC(C)=O)CO[C@@H]4C[C@H](OCCO)[C@@]3(C)[C@H]1O)C2(C)C [Example 18, 9-Dihydrotaxol 7-O-(2-Hydroxyethyl) ether]	–	–	0.039 (≈ 0.0433 µM)	0.17 (≈ 0.189 µM)	–
CC(=O)O[C@@H]1C2=C(C)[C@@H](OC(=O)[C@H](O)[C@@H](NC(=O)OC(C)(C)C)c3ccccc3)C[C@@](O)([C@@H](OC(=O)c3ccccc3)[C@@H]3[C@]4(OC(C)=O)CO[C@@H]4C[C@H](O)[C@@]3(C)[C@H]1O)C2(C)C [Example 20, N-Debenzoyl-N-t-butoxycarbonyl-9-dihydrotaxol]	–	–	0.0003 (≈ 0.000352 µM)	0.0025 (≈ 0.00293 µM)	–
CC(=O)O[C@@H]1C2=C(C)[C@@H](OC(=O)[C@H](O)[C@@H](NC(=O)c3ccccc3)c3ccccc3)C[C@@](O)([C@@H](OC(=O)c3ccccc3)[C@@H]3[C@]4(OC(C)=O)CO[C@@H]4C[C@H](OCC(O)CO)[C@@]3(C)[C@H]1O)C2(C)C (stereo partly shown) [Example 16, 9-dihydrotaxol 7-O-(2,3-dihydroxypropyl) ether]	–	–	0.626 (≈ 0.673 µM)	> 1	–
CC(=O)O[C@@H]1C2=C(C)[C@@H](OC(=O)[C@H](O)[C@@H](NC(=O)NC(C)(C)C)c3ccccc3)C[C@@](O)([C@@H](OC(=O)c3ccccc3)[C@@H]3[C@]4(OC(C)=O)CO[C@@H]4C[C@H](O)[C@@]3(C)[C@H]1O)C2(C)C [Example 30, N-Debenzoyl-N-t-butylcarbamyl-9-dihydrotaxol]	0.014 (≈ 0.0165 µM)	0.017 (≈ 0.02 µM)	–	–	–
CC(=O)O[C@@]12CO[C@@H]1C[C@H](O)[C@]1(C)[C@@H]2[C@H](OC(=O)c2ccccc2)[C@]2(O)C[C@H](OC(=O)[C@H](O)[C@@H](NC(=O)OC(C)(C)C)c3ccccc3)C(C)=C([C@@H](O)[C@@H]1O)C2(C)C [Example 21, 10-Deacetyl-N-debenzoyl-N-t-butoxycarbonyl-9-dihydrotaxol]	–	–	0.00026 (≈ 0.000321 µM)	0.0028 (≈ 0.00346 µM)	–
CC(=O)O[C@@H]1C2=C(C)[C@@H](OC(=O)[C@H](O)[C@@H](NC(=O)C(C)(C)C)c3ccccc3)C[C@@](O)([C@@H](OC(=O)c3ccccc3)[C@@H]3[C@]4(OC(C)=O)CO[C@@H]4C[C@H](O)[C@@]3(C)[C@H]1O)C2(C)C [Example 28, N-Debenzoyl-N-pivaloyl-9-dihydrotaxol]	–	–	0.11 (≈ 0.132 µM)	0.083 (≈ 0.0993 µM)	–
CC(=O)O[C@@H]1C2=C(C)[C@@H](OC(=O)[C@H](O)[C@@H](NC(=O)OC34CC5CC(CC(C5)C3)C4)c3ccccc3)C[C@@](O)([C@@H](OC(=O)c3ccccc3)[C@@H]3[C@]4(OC(C)=O)CO[C@@H]4C[C@H](O)[C@@]3(C)[C@H]1O)C2(C)C [Example 24, N-Debenzoyl-N-adamantoxycarbonyl-9-dihydrotaxol]	0.0043 (≈ 0.00462 µM)	0.01 (≈ 0.0108 µM)	–	–	–
C=CCO[C@H]1C[C@H]2OC[C@@]2(OC(C)=O)[C@H]2[C@H](OC(=O)c3ccccc3)[C@]3(O)C[C@H](OC(=O)[C@H](O)[C@@H](NC(=O)c4ccccc4)c4ccccc4)C(C)=C([C@@H](OC(C)=O)[C@H](O)[C@]12C)C3(C)C [Example 15, 9-Dihydrotaxol-7-O-allyl ether]	0.001 (≈ 0.00112 µM)	0.0053 (≈ 0.00592 µM)	–	–	–
CC(=O)O[C@@H]1C2=C(C)[C@@H](OC(=O)[C@H](O)[C@@H](NC(=O)c3ccccc3)c3ccccc3)C[C@@](O)([C@@H](OC(=O)c3ccccc3)[C@@H]3[C@]4(OC(C)=O)CO[C@@H]4C[C@H](O)[C@@]3(C)[C@H]1O)C2(C)C [Example 8, 9-Dihydrotaxol]	0.016 (≈ 0.0187 µM)	0.049 (≈ 0.0572 µM)	–	–	–
CC(=O)O[C@@]12CO[C@@H]1C[C@H](O)[C@]1(C)[C@@H]2[C@H](OC(=O)c2ccccc2)[C@]2(O)C[C@H](OC(=O)[C@H](O)[C@@H](NC(=O)c3ccccc3)c3ccccc3)C(C)=C([C@@H](O)[C@@H]1O)C2(C)C [Example 9, 10-Deacetyl-9-dihydrotaxol]	–	–	–	–	In vitro tumor cell cytotoxicity (IC50) (A549; A549, 3 days, MTT, absorbance at 570 nm): 0.011 µg/mL; In vitro tumor cell cytotoxicity (IC50) (P-388; [2]): 0.14 µg/mL
CCC1O[C@H]2C[C@H]3OC[C@@]3(OC(C)=O)[C@H]3[C@H](OC(=O)c4ccccc4)[C@]4(O)C[C@H](OC(=O)[C@H](O)[C@@H](NC(=O)c5ccccc5)c5ccccc5)C(C)=C([C@@H](OC(C)=O)[C@H](O1)[C@]23C)C4(C)C (stereo partly shown) [Example 11, 9-Dihydrotaxol-7,9-propylidene acetal]	0.023 (≈ 0.0257 µM)	0.022 (≈ 0.0246 µM)	–	–	–
CC(=O)OCCO[C@H]1C[C@H]2OC[C@@]2(OC(C)=O)[C@H]2[C@H](OC(=O)c3ccccc3)[C@]3(O)C[C@H](OC(=O)[C@H](O)[C@@H](NC(=O)c4ccccc4)c4ccccc4)C(C)=C([C@@H](OC(C)=O)[C@H](O)[C@]12C)C3(C)C [Example 19, 9-Dihydrotaxol 7-O-(2-Acetoxyethyl) ether]	–	–	0.12 (≈ 0.127 µM)	0.079 (≈ 0.0839 µM)	–
CC(=O)O[C@@H]1C2=C(C)[C@@H](OC(=O)[C@H](O)[C@@H](NC(=O)OCc3ccccc3)c3ccccc3)C[C@@](O)([C@@H](OC(=O)c3ccccc3)[C@@H]3[C@]4(OC(C)=O)CO[C@@H]4C[C@H](O)[C@@]3(C)[C@H]1O)C2(C)C [Example 26, N-Debenzoyl-N-benzyloxycarbonyl-9-dihydrotaxol]	0.031 (≈ 0.035 µM)	0.057 (≈ 0.0643 µM)	–	–	–

— patent US5594157A, “Process for making taxol derivatives” (Abbott Laboratories, priority 1995, dated 1997)
